Like-named read-outs stand apart in the source and are kept apart here.
What was measured:
[1] = Liver metabolic stability assay, hLM; format: in vitro ADME, human; details: human liver microsomes, 1 mg protein/ml, 5 μM test compound, 15 min, 37 °C
Method: (§1) Liver preparations (microsomal fractions) were obtained from BD Gentest (San Jose, Calif., US). Metabolic stability was assessed using the following assay conditions. […] The mixture was pre-incubated at 37° C. for 5 min and the enzymatic reaction was started by addition of 5 μM test compound. After 0 (control) and 15 minutes (min), the reactions were terminated by addition of […] (500 μl). The precipitated material was removed by centrifugation at 1200 g for 10 min. The supernatant was analysed by LC-MS/MS on a ThermoFinnigan LCQ Deca XP ion-trap mass spectrometer equipped with an atmospheric pressure chemical ionisation source. Calculation of %-compound remaining was as described by Kantharaj et al. 2003 ((Kantharaj E., Tuytelaars A, Proost P E A, Ongel Z, van […] (2003). Simultaneous measurement of drug metabolic stability and identification of metabolites using ion-trap mass spectrometry.

[2] = system: Candida parapsilosis B66126; assay: Antifungal activity in vitro (resazurin susceptibility screen), Inf. D; format: cell-based; details: Lodderomyces parapsilosis
In short: (§2)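 Each well was inoculated with 10^3 cfu of fungus onto dried, pre-spotted compound serial dilutions in RPMI-MOPS medium, with fungal growth read by resazurin. Growth was referenced to drug-free culture (100%) and medium-only (0%) controls on each plate.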

[3] = system: Cryptococcus neoformans B66663; assay: Antifungal activity in vitro (resazurin susceptibility screen), Inf. F; format: cell-based; details: Cryptococcus neoformans
In short: (§3)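 Susceptibility was tested on pre-made plates bearing spotted serial compound dilutions (stored at 4 °C in darkness, maximum 2 weeks). Cryopreserved fungal stocks, diluted 1/1000 right before use, supplied 10^3 cfu per well, with drug-free and medium-only wells as controls.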

[4] = system: Microsporum canis B68128; assay: Antifungal activity in vitro (resazurin susceptibility screen), Inf. B; format: cell-based; details: Microsporum canis
In short: as §2

[5] = system: Trichophyton mentagrophytes B70554; assay: Antifungal activity in vitro (resazurin susceptibility screen), Inf. G; format: cell-based; details: Trichophyton mentagrophytes
In short: as §2

[6] = Liver metabolic stability assay, mLM; format: in vitro ADME; details: mouse liver microsomes, 1 mg protein/ml, 5 μM test compound, 15 min, 37 °C
Method: as §1

[7] = Liver metabolic stability assay, gpLM; format: in vitro ADME, guinea pig
Method: as §1

[8] = system: Trichophyton rubrum B68183; assay: Antifungal activity in vitro (resazurin susceptibility screen), Inf. C; format: cell-based
In short: as §3

[9] = system: Sporothrix schenkii B62482; assay: Antifungal activity in vitro (resazurin susceptibility screen), Inf. A; format: cell-based; details: Sporothrix
In short: as §3

[10] = system: Aspergillus fumigatus B42928; assay: Antifungal activity in vitro (resazurin susceptibility screen), Inf. E; format: cell-based
In short: as §3

[11] = system: Rhizopus oryzae IHEM5223; assay: Antifungal activity in vitro (resazurin susceptibility screen), Inf. J; format: cell-based; details: Rhizopus arrhizus, 37 °C, 24 hours, resa time 6 hours, read-out: Inf. J pIC50 (converted)
Method: (§4) The standard susceptibility screen was performed in 96-well plates (U-bottom, Greiner Bio-One). […] These serial dilutions (10 n1) were then spotted onto test-plates that could be stored in the dark at 4° C. for a maximum period of 2 weeks. […] The different fungal species/isolates (Table 3a) were cryopreserved and 1/1000 diluted in medium just prior to use. A standard inoculum of 200 μl containing 10^3 colony-forming unit (cfu) was then added to each well. A positive control (100% growth=fungal culture without antifungal) and a negative control (0% growth ═RPMI-MOPS medium) were included on each plate. […] [table]

[12] = system: Rhizomucor miehei IHEM13391; assay: Antifungal activity in vitro (resazurin susceptibility screen), Inf. K; format: cell-based; details: 37 °C, 48 hours, resa time 17 hours, read-out: Inf. K pIC50 (converted)
Method: as §4

[13] = system: Scedosporium prolificans IHEM21157; assay: Antifungal activity in vitro (resazurin susceptibility screen), Inf. I; format: cell-based; details: Lomentospora prolificans, 37 °C, 48 hours, resa time 17 hours, read-out: Inf. I pIC50 (converted)
Method: as §4

[14] = system: Scedosporium apiospermum IHEM3817; assay: Antifungal activity in vitro (resazurin susceptibility screen), Inf. H; format: cell-based; details: 37 °C, 48 hours, resa time 17 hours, read-out: Inf. H pIC50 (converted)
Method: as §4

[15] = target: CYP3A4 (Homo sapiens, UniProt P08684); assay: Cytochrome P450 inhibition, Protocol A, cDNA expressed proteins, fluorogenic substrates; format: in vitro ADME; details: % inhibition at 10 μM, cDNA expressed protein
In short: (§5)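 cDNA-expressed enzymes with fluorogenic substrates (three separate ones for CYP3A4) in sodium/potassium buffer pH 7.4 plus NADPH-generating system. Compounds at 1 nM to 10 μM final, prewarmed 5 min at 37° C, reaction started with NADP+, stopped, then fluorescence measured.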

[16] = target: CYP2C9 (Homo sapiens, UniProt P11712); assay: Cytochrome P450 inhibition, Protocol A, cDNA expressed proteins, fluorogenic substrate; format: in vitro ADME; details: % inhibition at 10 μM; substrate MFC; cDNA expressed protein
In short: as §5

[17] = target: CYP2D6 (Homo sapiens, UniProt P10635); assay: as above; format: in vitro ADME; details: % inhibition at 10 μM; substrate AMMC; cDNA expressed protein
In short: as §5

[18] = target: T1, CYP1A2 (Homo sapiens, UniProt P05177); assay: as above; format: in vitro ADME; details: % inhibition at 10 μM; substrate CEC; cDNA expressed protein
T1 sequence (P05177 1-516): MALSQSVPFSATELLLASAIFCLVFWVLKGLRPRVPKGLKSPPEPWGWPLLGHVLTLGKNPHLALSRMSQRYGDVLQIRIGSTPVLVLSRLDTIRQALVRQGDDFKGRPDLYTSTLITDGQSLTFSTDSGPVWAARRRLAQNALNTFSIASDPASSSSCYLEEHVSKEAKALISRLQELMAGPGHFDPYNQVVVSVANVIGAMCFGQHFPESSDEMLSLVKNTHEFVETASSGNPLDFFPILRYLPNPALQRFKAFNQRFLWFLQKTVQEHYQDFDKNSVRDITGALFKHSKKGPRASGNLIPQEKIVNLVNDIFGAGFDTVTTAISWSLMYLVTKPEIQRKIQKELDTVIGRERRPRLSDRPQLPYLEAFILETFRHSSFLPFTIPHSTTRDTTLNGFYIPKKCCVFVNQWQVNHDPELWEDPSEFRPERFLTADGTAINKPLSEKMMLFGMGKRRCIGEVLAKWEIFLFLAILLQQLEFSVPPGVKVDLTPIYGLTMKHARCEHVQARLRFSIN
In short: as §5

[19] = system: Mucor circinelloides IHEM21105; assay: Antifungal activity in vitro (resazurin susceptibility screen), Inf. L; format: cell-based; details: 27 °C, 48 hours, resa time 17 hours, read-out: Inf. L pIC50 (converted)
Method: as §4

[20] = Candida parapsilosis B66126, 37 °C, 24 hours, resa time 4 hours, read-out: Inf. D pIC50 (converted)
[21] = B66663, Cryptococcus neoformans B66663, 37 °C, 24 hours, resa time 4 hours, read-out: Inf. F pIC50 (converted)
[22] = B68128, Microsporum canis B68128, 27 °C, 9 days, resa time 24 hours, read-out: Inf. B pIC50 (converted)
[23] = B70554, Trichophyton mentagrophytes B70554, 27 °C, 7 days, resa time 24 hours, read-out: Inf. G pIC50 (converted)
[24] = guinea pig microsomes, 1 mg protein/ml, 5 μM test compound, 15 min, 37 °C
[25] = Trichophyton rubrum B68183, 27 °C, 7 days, resa time 24 hours, read-out: Inf. C pIC50 (converted)
[26] = B62482, Sporothrix schenkii B62482, 27 °C, 4 days, resa time 24 hours, highest in-test concentration 64 μM, read-out: Inf. A pIC50 (converted)
[27] = Aspergillus fumigatus B42928, 27 °C, 48 hours, resa time 17 hours, read-out: Inf. E pIC50 (converted)

CYP3A4, sequence (P08684 whole entry): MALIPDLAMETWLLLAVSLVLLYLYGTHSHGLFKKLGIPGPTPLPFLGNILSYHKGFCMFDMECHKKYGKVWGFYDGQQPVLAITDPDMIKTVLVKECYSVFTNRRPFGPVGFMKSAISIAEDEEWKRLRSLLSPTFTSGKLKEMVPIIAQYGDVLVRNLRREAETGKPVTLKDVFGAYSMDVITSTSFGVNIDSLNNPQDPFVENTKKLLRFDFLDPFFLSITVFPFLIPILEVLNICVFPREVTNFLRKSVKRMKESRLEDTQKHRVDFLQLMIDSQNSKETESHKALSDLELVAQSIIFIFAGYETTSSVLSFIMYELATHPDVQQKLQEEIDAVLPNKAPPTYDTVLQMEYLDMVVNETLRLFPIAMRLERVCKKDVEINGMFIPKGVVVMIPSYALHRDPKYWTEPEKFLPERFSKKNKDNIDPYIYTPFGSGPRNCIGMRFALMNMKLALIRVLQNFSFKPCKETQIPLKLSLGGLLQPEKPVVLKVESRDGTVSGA
CYP2C9, sequence (P11712 whole entry): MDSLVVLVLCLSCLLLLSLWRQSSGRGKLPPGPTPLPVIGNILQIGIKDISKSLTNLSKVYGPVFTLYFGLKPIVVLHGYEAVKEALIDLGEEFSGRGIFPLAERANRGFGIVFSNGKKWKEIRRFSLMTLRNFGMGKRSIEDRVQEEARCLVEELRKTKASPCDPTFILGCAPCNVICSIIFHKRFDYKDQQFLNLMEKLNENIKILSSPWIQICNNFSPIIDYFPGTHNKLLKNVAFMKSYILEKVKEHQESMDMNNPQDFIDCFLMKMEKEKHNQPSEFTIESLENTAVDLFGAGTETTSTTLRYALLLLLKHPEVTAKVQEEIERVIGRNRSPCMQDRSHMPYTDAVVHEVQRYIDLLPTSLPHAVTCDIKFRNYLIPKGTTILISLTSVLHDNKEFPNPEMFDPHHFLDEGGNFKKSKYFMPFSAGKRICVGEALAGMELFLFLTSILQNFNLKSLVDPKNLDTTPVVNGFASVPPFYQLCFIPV
CYP2D6, sequence (P10635 whole entry): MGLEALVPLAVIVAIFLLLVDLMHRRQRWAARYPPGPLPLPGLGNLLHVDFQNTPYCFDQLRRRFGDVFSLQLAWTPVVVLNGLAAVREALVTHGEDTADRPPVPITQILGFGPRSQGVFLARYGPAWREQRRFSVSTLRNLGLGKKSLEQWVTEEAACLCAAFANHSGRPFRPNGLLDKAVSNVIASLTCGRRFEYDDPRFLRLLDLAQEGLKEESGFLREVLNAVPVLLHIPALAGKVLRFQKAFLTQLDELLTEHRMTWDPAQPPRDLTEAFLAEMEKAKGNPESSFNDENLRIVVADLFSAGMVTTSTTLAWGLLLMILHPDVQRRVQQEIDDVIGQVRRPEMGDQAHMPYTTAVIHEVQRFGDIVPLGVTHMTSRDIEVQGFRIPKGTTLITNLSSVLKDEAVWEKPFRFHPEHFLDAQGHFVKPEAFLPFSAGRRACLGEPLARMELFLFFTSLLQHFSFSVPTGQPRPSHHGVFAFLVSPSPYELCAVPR

%-compound metabolised_Met_hLM [1] | %-compound metabolised Met_mLM [6] | melting point | IC50 [2, 20] | IC50 [3, 21] | IC50 [11] | IC50 [12] | IC50 [4, 22] | IC50 [5, 23] | %-compound metabolised Met_gpLM [7, 24] | IC50 [8, 25] | IC50 [13] | IC50 [9, 26] | IC50 [14] | IC50 [10, 27] | Compound | other results
50% | 70% | 252.3 to 252.6 °C | > 31.6 µM | > 31.6 µM | > 63.1 µM | > 63.1 µM | 0.2 µM | 0.251 µM | 84% | 0.0398 µM | > 63.1 µM | > 31.6 µM | > 63.1 µM | > 31.6 µM | CC(=O)c1ccc(C2=NCc3c(Cl)cccc3-n3cccc32)cc1 [Compound 17, 1-[4-(7-chloro-6H-pyrrolo[1,2-a][1,4]benzodiazepin-4-yl)phenyl]-ethanone] | –
19% | 45% | 183.6 to 186.7 °C | > 63.1 µM | 10 µM | – | – | 0.631 µM | 3.98 µM | 44% | 0.0794 µM | – | 1.26 µM | – | 1.58 µM | CC(=O)c1ccc(C2=NCc3cc(Cl)cc(Cl)c3-n3cccc32)cc1 [Compound 26, 1-[4-(8,10-dichloro-6H-pyrrolo[1,2-a][1,4]benzodiazepin-4-yl)phenyl]-ethanone] | hCYP3A4_BFC_Pct_Inh ([15]; substrate BFC): 33%; hCYP3A4_BQ_Pct_Inh ([15]; substrate BQ): 32%; hCYP3A4_DBF_Pct_Inh ([15]; substrate DBF): 55%; hCYP2C9_MFC_Pct_Inh [16]: 69%; hCYP2D6_AMMC_Pct_Inh [17]: 74%; hCYP1A2_CEC_Pct_Inh [18]: 34%
2% | 41% | 218.5 to 219.9 °C | > 63.1 µM | > 63.1 µM | > 63.1 µM | > 63.1 µM | 1.26 µM | 2.51 µM | 21% | 2 µM | 7.94 µM | > 63.1 µM | > 63.1 µM | > 63.1 µM | CS(=O)(=O)c1ccc(C2=NCc3c(Cl)cccc3-n3cccc32)cc1 [Compound 28, 7-chloro-4-[4-(methylsulfonyl)phenyl]-6H-pyrrolo[1,2-a][1,4]benzodiazepine] | IC50 [19]: > 63.1 µM

Compound | %-compound metabolised_Met_hLM [1] | %-compound metabolised Met_mLM [6] | melting point | IC50 [2, 20] | IC50 [3, 21] | IC50 [11] | IC50 [12] | IC50 [4, 22] | IC50 [5, 23] | %-compound metabolised Met_gpLM [7, 24] | IC50 [8, 25] | IC50 [13] | IC50 [9, 26] | IC50 [14] | IC50 [10, 27] | other results
CC(O)c1ccc(C2NCc3c(Cl)cccc3-n3cccc32)cc1 (stereo not drawn) [Compound 1, 4-(7-chloro-5,6-dihydro-4H-pyrrolo[1,2-a][1,4]benzodiazepin-4-yl)-alpha-methyl-benzenemethanol] | 43% | 51% | 118.5 to 121.2 °C | – | – | – | – | – | – | – | – | – | – | – | – | IC50 ([2]; B66126, read-out: Inf. D pIC50 (converted)): > 63.1 µM; IC50 ([3]; B66663, read-out: Inf. F pIC50 (converted)): 63.1 µM; IC50 ([4]; B68128, read-out: Inf. B pIC50 (converted)): 3.16 µM; IC50 ([5]; B70554, read-out: Inf. G pIC50 (converted)): 12.6 µM; %-compound metabolised Met_gpLM ([7]; guinea pig, microsomes, 0.25 h, 5 μM, pH 7.4): 86%; IC50 ([8]; Trichophyton rubrum, B68183, read-out: Inf. C pIC50 (converted)): 3.16 µM; IC50 ([9]; B62482, read-out: Inf. A pIC50 (converted)): > 63.1 µM; IC50 ([10]; Aspergillus fumigatus, B42928, read-out: Inf. E pIC50 (converted)): > 63.1 µM

Reference: patent publication US9040523B2, “Antifungal 5,6-dihydro-4H-pyrrolo[1,2-α][1,4]-benzodiazepines and 6H-pyrrolo[1,2-α][1,4]benzodiazepines substituted with benzene derivatives” (JANSSEN PHARMACEUTICA NV, priority 2010, dated 2015)
